EP4048276B1, “SOLID PHARMACEUTICAL FORMULATIONS COMPRISING TICAGRELOR” (Santa Farma Ilaç Sanayi A.S., priority 2019, dated 2021)
≈ marks a conversion by molar mass, not a printed value. Read-outs that look alike come from different tables or passages of the source.

Legend:
Type in all cases: physicochemical
[1] = Solubility study of ticagrelor drug substance in water and pH media
Experimental: (§1) Moreover, this low aqueous solubility of ticagrelor leads to an increase of relevance of particle size. Solubility studies in human intestinal fluids, bulk-tapped density, compressibility index, Hausner ratio, flowability studies of drug substance were performed prior to beginning of the development process of pharmaceutical drug product.

[2] = Bulk/tapped density, compressibility index, Hausner ratio and flowability of drug substance
Experimental: as §1
In addition, bulk density and tapped density values of ticagrelor was investigated. By using the results obtained, compressibility index, Hausner ratio and flowability of drug substance was designated.

[3] = Particle size distribution analysis
Experimental: Moreover, particle size distribution analysis for ticagrelor was performed.

solubility ([1]; pH 1.2 medium, pH 1.2, simulated gastric fluid, read-out: Average solubility, pH: 1.2): 14 µg/mL (≈ 26.8 µM)
solubility ([1]; pH 4.5 medium, pH 4.5, aqueous buffer, read-out: Average solubility, pH: 4.5): 6 µg/mL (≈ 11.5 µM)
solubility ([1]; pH 6.8 medium, pH 6.8, aqueous buffer, read-out: Average solubility, pH: 6.8): 5 µg/mL (≈ 9.57 µM)
solubility ([1]; water, read-out: Average solubility, Water): 6 µg/mL (≈ 11.5 µM)
Bulk density [2]: 0.157
Compressibility index [2]: 39%
Flowability [2]: Very poor
Hausner ratio [2]: 1.639
Tapped density [2]: 0.257
D10 [3]: 3.0 µm
D50 [3]: 6.4 µm
D90 [3]: 12.5 µm
Structure (SMILES): CCCSc1nc(N[C@@H]2C[C@H]2c2ccc(F)c(F)c2)c2nnn([C@@H]3C[C@H](OCCO)[C@@H](O)[C@H]3O)c2n1 [Ticagrelor, (1S,2S,3R,5S)-3-(7-{[(1R,2S)-2-(3,4-Diflourophenyl)cyclopropyl]amino}-5-(propylsulfanyl)-3H-[1,2,3]triazol[4,5-d]pyrimidine-3-yl)-5-(2-hydroxyethoxy)cyclopentane-1,2-diol]
